Results on four compounds are retold here after patent publication US20140272095A1, “GLUTAMIC ACID DERIVATIVES” (Givaudan S.A., priority 2011, published 2014).

Common to all, as to assay type: in vivo
Assay [1] can be described thus: Flavourist tasting of a 0.5% NaCl / 0.03% MSG solution, umami intensity versus reference solution A (Example 2). The settings on record: 10 ppm compound in 0.5% NaCl and 0.03% MSG; average rating of 4 flavourists versus solution A; scale -3 (much lower than base) to 3 (much higher), 0 = same as base. The method, then: (§1) Two solutions were prepared: • A a solution of 0.5% NaCl and 0.03% MSG • B a solution of 0.5% NaCl and 0.03% MSG and 10 ppm Example 1 compound
(§2) The samples were tasted by a small group of flavourists (2 male, 2 female, aged between 30 and 60). The intensity of the umami and salt taste of solution B was compared with that of the reference (solution A) and rated according to the following intensity scale:
(§3) The results (average of ratings given by the flavourists) were: […]

A short description of assay [2]: Flavourist tasting, enhancement effect on NaCl (solution D versus A, Example 3). The settings on record: 10 ppm in 0.5% NaCl; marked between 0 and 10, greater value = greater effect; salt reference solution A = 0.0. As for the experimental part:
(§4) Six solutions were prepared: • A a solution of 0.5% NaCl • B a solution of 0.5% NaCl and 0.03% MSG • C a solution of 0.5% NaCl and 0.015% ribonucleotides • D a solution of 0.5% NaCl and 10 ppm Example 1 compound • E a solution of 0.5% NaCl and 0.03% MSG and 10 ppm Example 1 compound • F a solution of 0.5% NaCl and 0.015% ribonucleotides and 10 ppm Example 1 compound
(§5) The samples were tasted by a group of 5-10 flavourists aged between 30 and 60. The taste of solution D is compared with that of A to determine the enhancement effect of Example 1 compound on NaCl. Similarly, solution E is compared with solution B and solution F with solution C to determine the enhancement effect of Example 1 compound on MSG and ribonucleotides respectively. The effect is marked between 0 and 10, the greater the value the greater the effect.

A short description of assay [3]: Flavourist tasting, enhancement effect on MSG (solution E versus B, Example 3). The settings on record: 10 ppm in 0.5% NaCl and 0.03% MSG; marked between 0 and 10; MSG reference solution B = 5.0. The method, then:
as §4, §5

A short description of assay [4]: Flavourist tasting of a 0.5% NaCl / 0.03% MSG solution, salt intensity versus reference solution A (Example 2). To be noted: 10 ppm compound in 0.5% NaCl and 0.03% MSG; average rating of 4 flavourists versus solution A; scale -3 (much lower than base) to 3 (much higher), 0 = same as base. As for the experimental part: as §1, §2, §3
Assay [5] can be described thus: Flavourist tasting, enhancement effect on ribonucleotides (solution F versus C, Example 3). The settings on record: 10 ppm in 0.5% NaCl and 0.015% ribonucleotides; marked between 0 and 10; ribo reference solution C = 5.0. As for the experimental part:
as §4, §5

A short description of assay [6]: Bread comparison by a panel of professional tasters (Example 5). The settings on record: bread B: 20 g NaCl and 0.025 g compound in the flour mixture; bread A: 20 g NaCl only. As for the experimental part: A bread flour mixture was prepared by mixing 1250 g of wheat flour, 250 g of white wheat flour and 60 g of yeast. Two salt mixtures were added to separate flour mixtures: • A 20 g of NaCl • B 20 g of NaCl and 0.025 g (+−)-1-aminocyclopentane-trans-1,3-dicarboxylic acid
Doughs were prepared by mixing the ingredients and adding 900 g of water. The doughs were allowed to rise at room temperature for 2 hours and baked at 220° C. for 45 minutes.
A panel of professional tasters compared the breads. The bread B was preferred over reference bread A.

Assay [7] is described as follows: Bouillon tasting by flavourists versus reference bouillon (Example 4). The settings on record: 250 ppm in bouillon (32 g mix in 1 L boiling water); 4 flavourists. The method, then:
A bouillon mix was prepared from 155.0 g of sodium chloride, 157.0 g of dextrose monohydrate (ex Tapioca), 0.2 g of celery oleoresin, 0.3 g of oleoresin turmeric Vegex, 0.2 g of oleoresin coriander seed, 444.8 g maltodextrin 5-8 DE, 40.0 g vegetable oil soya bean refined, 30.0 g yeast standard light, 4.0 g of onion powder, 4.0 g of garlic powder, 0.5 g of white pepper and 164.0 g of potato starch.
32 g of the well-mixed ingredients was added to 1 L of boiling water and stirred until completely dissolved.
A small group of flavourists (2 male, 2 female) compared the taste of the reference bouillon with that of a batch of the same bouillon containing 250 ppm of 2-(amino(carboxy)methyl)-cyclopropanecarboxylic acid. The flavourists agreed that the test bouillon was more umami and saltier than the reference bouillon.

Turning to `N[C@]1(C(=O)O)CC[C@H](C(=O)O)C1` (racemic) [(±)-1-Aminocyclopentane-cis-1,3-dicarboxylic acid], the “Intensity Taste Umami” value in assay [1] stood at 0.00. In addition, the “NaCl Taste” value in assay [2] came to 1.3. For the same compound, the MSG taste in assay [3] was determined as 6.7. Moreover, in assay [4], the “Intensity Taste Salt (NaCl)” value is 1.00. The Ribo taste in assay [5] turned out to be 5.2.

For the compound `N[C@@]1(C(=O)O)CC[C@H](C(=O)O)C1` (racemic) [(±)-1-Aminocyclopentane-trans-1,3-dicarboxylic acid], the “Preference of bread B over reference bread A” value in assay [6] is reported as “preferred”. Further, the “Intensity Taste Umami” value in assay [1] is reported as 0.00. Besides, the “NaCl Taste” value in assay [2] worked out at 2.0. Moreover, the MSG taste in assay [3] was 5.3. For the same compound, the “Intensity Taste Salt (NaCl)” value in assay [4] amounted to 1.00. Besides, the Ribo taste in assay [5] amounted to 6.3.

As to `NC(C(=O)O)C1CC1C(=O)O` (centres unmarked) [2-(amino(carboxy)methyl)cyclopropanecarboxylic acid], in assay [1], the “Intensity Taste Umami” value was 1.00. For the same compound, the “NaCl Taste” value in assay [2] is recorded as 1.2. Besides, the MSG taste in assay [3] was determined as 6.3. For the same compound, the “Intensity Taste Salt (NaCl)” value in assay [4] is recorded as 0.00. In assay [7], the “Salt taste of test bouillon versus reference bouillon” value is recorded as “saltier” and the “Umami taste of test bouillon versus reference bouillon” value was “more umami”. Also, in assay [5], the Ribo taste came to 5.7.

`CCOC(=O)C(N)C1CC1C(=O)OC.Cl` (centres unmarked) [methyl 2-(1-amino-2-ethoxy-2-oxoethyl)cyclopropanecarboxylate, HCl]: in assay [1], the “Intensity Taste Umami” value is on record as 1.00. In addition, the “NaCl Taste” value in assay [2] is listed as 0.0. Besides, the MSG taste in assay [3] is recorded as 5.5. Besides, the “Intensity Taste Salt (NaCl)” value in assay [4] was determined as 0.00. Moreover, the Ribo taste in assay [5] is 5.4.
